Experiment: Cumulative skin permeation study in a 3 ml permeation cell (Example 2)
Assay type: in vitro ADME, human
Conditions: 2% w/w diclofenac sodium hydroalcoholic gels
Experimental: In a cumulative skin permeation study in a 3 ml permeation cell, cumulative permeation through a skin sample from a human donor was studied. Five different compositions were tested in six replicates. Cumulative permeation was measured at 4 hours (hrs) and at 24 hrs after application of a dose. However, cumulative permeation at 4 hrs was below the measurement threshold in this experiment and thus is not reported for Example 2. All formulations were applied in a dose of 6 microlitres onto skin sample of a defined surface area. The following formulations were studied: […]

Polysorbate 20 [Kolliphor PS 20]
effect of non-ionic emulsifier on cumulative permeation of diclofenac at 24 hrs: permeation retarding effect

macrogol cetostearyl ether 20 [Kolliphor CS 20]
effect of non-ionic emulsifier on cumulative permeation of diclofenac at 24 hrs: more pronounced
